This note sets out measurements from patent EP0623339B1, “Use of 4-,4- and 5-, or 4- and 6-substituted derivatives of resorcin in cosmetic or dermopharmaceutical compositions for depigmentation” (L'OREAL, priority 1993, dated 1994).

This assay concerns tyrosinase de champignons. Put plainly: in vitro inhibition test of tyrosinase activity (dopachrome formation followed at 475 nm). The class given is biochemical. Particulars: lowering of maximal dopachrome formed (OD 475 nm at plateau) vs. no inhibitor; inhibitor at 50 % molaire relative to tyrosine; pH = 6,5; 25°C. An excerpt:
Certains des composés de formule générale (I) ont été étudiés comparativement à l'hydroquinone à quantité molaire équivalente dans le test d'inhibition in vitro de l'activité de la tyrosinase.
Selon ce test on suit par spectrométrie visible à 475 nm la quantité de dopachrome formée au cours de la chaîne de réactions de transformation de la tyrosine en mélanines. Ces réactions sont catalysées in vitro par la tyrosinase de champignons, en présence d'un co-substrat réducteur (par exemple la L-dopa en petite quantité) pour initier la réaction d'hydroxylation de la L-tyrosine en L-dopa, laquelle est ensuite oxydée catalytiquement en dopaquinone puis en dopachrome, produit intermédiaire avant les réactions d'oxydation non enzymatiques aboutissant à la formation des mélanines.
On mesure donc la concentration en dopachrome formé au cours du temps en présence et en absence de l'inhibiteur. […]
On exprime l'effet d'inhibition par l'abaissement de la quantité maximale de dopachrome formée (valeur de densité optique à 475 nm lue au plateau de la courbe) par rapport à la quantité obtenue en l'absence d'inhibiteur. […]
• cuve de référence : 3 ml de A • cuve d'essai : 1 ml de B 0,1 ml de C 1,85ml de A + E • homogénéiser et équilibrer à 25°C • ajouter 0,05 ml de D • mélanger rapidement et observer la cinétique par la mesure de l'absorbance à 475 nm en fonction du temps.

Structures are written as SMILES.

Take `Oc1ccc(O)cc1` [hydroquinone]: the “% d'inhibition” value was -33%.
